Measured values as given in the NIST ThermoML archive (doi:10.1016/j.fluid.2007.06.008).
± gives the expanded uncertainty stated by the source.

Assays:
[1] = Liquid; for mass density: 101.33 kPa; for Normal boiling temperature: Ebulliometric method (Recirculating still)
[2] = refractive index (Na D-line) (dimensionless); details: 298.15 K; 101.33 kPa; Liquid; Standard Abbe refractometry

mass density ([1]; 298.15 K)	Normal boiling temperature [1]	refractive index [2]	mass density ([1]; 303.15 K)	Compound
785.04 ± 0.5 kg/m3	78.26 ± 0.1 °C	1.3598 ± 0.0007		CCO [ethanol]
659.62 ± 1.4 kg/m3	63.2 ± 0.1 °C	1.3744 ± 0.0005		CCC(C)CC [3-methylpentane]
764.92 ± 1.1 kg/m3	100.81 ± 0.1 °C	1.4208 ± 0.0005		CC1CCCCC1 [methylcyclohexane]
	82.18 ± 0.1 °C	1.3851 ± 0.0005	775.4 ± 0.66 kg/m3	CC(C)(C)O [2-methylpropan-2-ol]
